For data set [1], the system named is LC3B-II. Briefly: Western blot of LC3B in other organs of treated mice. The class given is in vivo, mouse. Conditions: 5 HCQ-treated vs 5 PBS-treated mice. The method, then: Tissues used for protein analyses included uterine horns, ectopic lesions, ovaries, thymus, kidneys, heart, pancreas, spleen, and liver. Samples were flash frozen in liquid nitrogen and stored at -80° C. until use. Tissues were homogenized in ice-cold lysis buffer containing 1% Triton X-100, 50 mM HEPES, 150 mM NaCl, 1 mM MgCl2, 1 mM EGTA, 10% glycerol, and protease inhibitor cocktail (Roche, Indianapolis, Ind.) using a PowerGen 125 homogenizer (Fisher Scientific, Pittsburgh, Pa.). Samples were centrifuged at 14,000 rpm for 10 min at 4° C. The supernatants were collected and total protein concentration was determined using the BCA assay (ThermoScientific, Rockford, Ill.), and a Bio Tek synergy 2 microplate reader (Winooski, Vt.). Samples were normalized and then run onto 10 or 12% SDS-polyacrylamide gels prepared in a Criterion® Cassette system (Bio-Rad, Hercules, Calif.) as previously described. The following antibodies and dilutions were used: LC3B rabbit polyclonal (#2775, 1:1,000), LC3A rabbit monoclonal (#4599 ([…]), 1:1,000), Beclin-1 rabbit polyclonal (#3738, 1:1,000), GABARAPL1 rabbit monoclonal (#13733 (E1J4E), 1:1,000), AMPKα rabbit monoclonal (#2603 (23A3), 1:500), FOXO1 rabbit monoclonal (#2880 (C29H4), 1:1,000), and Pan-Actin rabbit polyclonal (#4968, 1:500) were all obtained from Cell Signaling Technology (Danvers, Mass.). […]
(A western blot detects proteins with antibodies after separation by electrophoresis.)

The test system of data set [2] is uterine horns and endometriotic lesions. Briefly: H&E histopathology of uterine horns and lesions from treated mice. The class given is in vivo, C57BL/6 mice. The method, then: A randomly selected subset of the collected lesions and uterine horns were processed for staining with hematoxylin and eosin (H&E) (pathologically confirmed endometriotic lesions from PBS and HCQ-treated mice, n=15 each; uterine horns derived from PBS-treated mice, n=10; and uterine horns derived from HCQ-treated mice, n=10).
Five-week-old C57BL/6 female mice were purchased from Jackson laboratories. All animals were maintained under standard 12 h photoperiod; food and water were available ad libitum throughout the study. All experimental procedures and animal care were approved by the Animal Care and Use Committee (IACUC) of the University of South Florida (R IS00000101), in accordance with the principles described in the Guide for the Care and Use of Laboratory Animals of the National Institutes of Health. All surgical procedures were performed under aseptic conditions using anesthesia. The mouse model of endometriosis was performed as previously described. […] Lesions were measured using a caliper. Volume of the lesions was calculated according to the formula: 4/3πr^2R.
Collected samples were immediately preserved in 10% neutral buffered formalin at the animal facility. […] Lesions were analyzed from independent blocks. […]

SMILES strings stand for the structures.

The source of these data is patent US10695341B2, “Compositions and methods for treating endometriosis” (UNIVERSITY OF SOUTH FLORIDA, priority 2014, dated 2020).

`CCN(CCO)CCCC(C)Nc1ccnc2cc(Cl)ccc12` (stereo not shown) [HCQ, hydroxychloroquine]: in data set [1], the “LC3B-II expression in heart” value is on record as “showed differences” and the “LC3B-II expression in lung” value is on record as “showed differences”. Also, the “uterine horns with irregular epithelium pattern” value in data set [2] (uterine horns from HCQ-treated mice, 60 mg/kg) was 5 out of 10. Besides, the “histology of ectopic growths (glandular components)” value in data set [2] (vs PBS, p=0.03 Fisher's exact test) is recorded as “did not histologically resemble endometriotic lesions”.
